Experimental data: patent US20080153921A1, “Lycopene Formulations For the Treatment of Atherosclerotic Conditions” (CAMBRIDGE, priority 2005, published 2008)

How the values were obtained:
[1] = tested on: lipid oxidising abzymes (atheroma extracted IgG); test: Testing of anti-abzyme activity (lipid oxidation, MDA/thiobarbituric acid assay); assay type: biochemical, human
Description: Antibodies were extracted from advanced atherosclerotic lesions of human aorta retrieved from two male patients […], during bypass surgery of an abdominal aortal stenosis at the Centre of Cardio-Vascular Surgery of the Medical University of Rostov-na-Donu, Russian Federation. After recovery these samples were immediately put in 30% w/v solution of NaCl and stored at 0-4° C. for 1 month prior to examination. […]
The antibodies were extracted and analysed separately from the lesions of the two pieces of the abdominal aorta obtained from the […] different patients. […]
Samples of the human serum were incubated with different concentrations of lycopene, lycopene/lactoprotein conjugate or alone (control samples) with the presence of atheroma extracted IgG for 16 hours at 37° C. at pH 5.6. The level of lipid peroxidation was assessed as a level of MDA concentration which was measured by spectrophotometric method [Draper, H. H. et al Free Radic. […] Briefly, the level of abzymes in a sample was determined as follows: Samples of sera were diluted 1:1 by 0.05M acetate buffer pH 4.0 to make the final pH of these samples between 5.6-5.8. […] The supernatants were collected and their absorption measured at λ 525 nm to determine the concentration of malondialdehydes (MDA), which are products of lipid peroxidation.

lipid oxidising abzymes = test: ELISA based abzyme assay; assay type: biochemical, human; settings: in vitro
Description: ELISA assays were performed using Medac materials and reagents, which were used in accordance with the manufacturers instructions.
Briefly, serum samples from patients were treated as described above. 50 μl of sample diluent was pipetted into microtitre well A1 as blank, and 50 μl of the negative control, Positive Control and the diluted patients' samples were pipetted into other microtitre wells. The microplate wells were incubated for 60 min (±5 min) at 37 °C (±1° C.) in a humid chamber and then washed three times with 200 μl wash buffer per well. 50 μl of Conjugate was then added to each well and the microplate wells incubated again for 60 min (±5 min) at 37 °C (±1° C.) in a humid chamber and then washed. 50 μl of TMB-Substrate, was added to each well and the microplate wells incubated for 30 min (±2 min) at 37 °C (±1° C.) in a humid chamber. The reaction was stopped by adding 100 μl of Stop Solution, to each well.
Photometric reading was performed at 450 nm (ref. 620-650 nm) within 15 min after adding the Stop Solution.
To calculate the results, the OD value of the blank (well A1) was subtracted from all other OD values. Preferably, the OD value of the blank was <0.150, the mean OD value of the Negative Control was <0.100 and the OD value of the Positive Control was >0.800. Cut-off mean OD value of the Negative Control+0.380. Grey zone Cut-off±10%

SMILES: CC(C)=CCC/C(C)=C/C=C/C(C)=C/C=C/C(C)=C/C=C/C=C(C)/C=C/C=C(C)/C=C/C=C(\C)CCC=C(C)C [Lycopene]
- Maximum inhibition in vitro ([1]; abzyme inhibition): 0%
- abzyme inhibition activity ([1]; lipid oxidation assay, in vitro): ineffective
- abzyme inhibition activity (lipid oxidising abzymes): ineffective
